In patent US11591288B2, “Compositions and methods for treating atherosclerotic cardiovascular disease” (GAVISH-GALILEE BIO APPLICATIONS LTD., priority 2017, dated 2023):
Read-outs that look alike come from different tables or passages of the source.

Experiments:
[1] = system: rePON1; assay: rePON1-lyso-DGTS interaction, Trp fluorescence quenching; format: binding
Method: To 200 μl rePON1 (50 μg/ml=1.16 μM) solution in black 96-well plate wells was added lyso-DGTS at various concentration (0, 1, 5, 10, 25, 50, 75, and 100 μg/ml). The solutions were incubated for 2 h at 25° C. or 37° C. Fluorescence measurements were performed with an Infinite M200 PRO fluorescence spectrophotometer (Tecan) with emission spectra recorded from 320 to 450 nm at an excitation wavelength of 290 nm.
The effect of lyso-DGTS on rePON1 can result from a specific interaction between the lipid and the enzyme which was studied using Trp fluorescence quenching method. […] (FIG. 3A) and 37° C. (FIG. 3B) in the 300-450 nm range with an excitation wavelength of 290 nm. Lyso-DGTS quenched the fluorescence of rePON1 in a dose dependent manner at both temperatures.
Quenching pathways can be described by the Stern-Volmer equation (eq. 1):
[formula] where F0 and F are the fluorescence intensities in the absence and presence of quencher (lyso-DGTS), respectively, Ksv is the Stern-Volmer quenching constant, and [Q] is the quencher concentration (M).
The binding constant and binding sites were calculated using (eq. 2):
[formula] where Ka is the binding constant, reflecting the degree of interaction between rePON1 and lyso-DGTS, and n is the number of binding sites specifying the number of lyso-DGTS molecules bound to a rePON1. […] (2.377×10^3 M^−1; FIG. 4C). The values obtained for n were not affected by the temperature and were equal to ˜1 (Table 4). The thermodynamic parameters: enthalpy (ΔH), entropy (ΔS), and free energy (ΔG) were calculated to characterize the type of rePON1-lyso-DGTS interaction.

[2] = target: PON1 (Homo sapiens, UniProt P27169); assay: PON1 binding to HDL (ratio HDL-bound PON1 vs. free PON1); conditions: data not shown
PON1, sequence (P27169 whole entry, species assumed): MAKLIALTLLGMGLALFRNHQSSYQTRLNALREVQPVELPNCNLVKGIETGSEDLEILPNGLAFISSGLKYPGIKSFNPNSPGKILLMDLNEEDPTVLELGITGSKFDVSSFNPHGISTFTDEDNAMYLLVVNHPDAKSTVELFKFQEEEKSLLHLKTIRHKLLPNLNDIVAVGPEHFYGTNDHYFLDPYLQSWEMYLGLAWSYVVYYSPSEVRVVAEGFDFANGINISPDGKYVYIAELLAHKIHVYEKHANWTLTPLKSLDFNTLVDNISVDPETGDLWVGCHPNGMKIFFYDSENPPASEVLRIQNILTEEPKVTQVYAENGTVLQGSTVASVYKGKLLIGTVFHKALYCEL

[3] = system: rePON1; assay: rePON1 lactonase activity (dihydrocoumarin assay) after incubation with lyso-DGTS; format: biochemical; conditions: for rePON1 lactonase activity: 2 h incubation, 37° C., 3.00 units without lyso-DGTS
Method: To 200 μl of rePON1 solution (5 μg/ml) in Tris-HCl buffer pH=8.4 was added 1 μl of lyso-DGTS dissolved in dimethyl sulfoxide (DMSO) to a final concentration of 1, 5, 10, 50, and 100 μg/ml. 1 μl DMSO was added to the control rePON1 solution. The mixtures were incubated at 37° C. for 2, 4, 24 or 48 h.
10 μl from each solution were taken to a UV 96-well microplate containing 90 μl Tris-HCL buffer pH=8.4 with 1 mM CaCl2 (activity buffer) in each well. Then 100 μl dihydrocoumarin, 2 mM in the activity buffer was added (prepared from a stock of 100 mM dihydrocoumarin in DMSO). Dihydrocoumarine hydrolysis rate was measured at 270 nm, once in 25 seconds for 15 minutes, using SpectraMax M2 Reader. Non-enzymatic hydrolysis of dihydrocoumarin was subtracted from the total rate of hydrolysis. One unit of lactonase activity was equal to the hydrolysis of 1 μmol of dihydrocoumarin/min.
The effect of lyso-DGTS on lactonase and arylesterase activities of rePON1 was examined. rePON1 (5 μg/ml in Tris buffer pH=8.4) was incubated with different concentrations of lyso-DGTS for 2, 4, 24, and 48 h at 37° C., and its lactonase and aryesterase activities were measured using dihydrocoumarin and phenyl acetate assays, respectively.

[4] = target: APOA1 (Homo sapiens, UniProt P02647); assay: APOA1-lyso-DGTS interaction, Trp fluorescence quenching; format: binding; conditions: for Kd: read-out: Binding constant Ka, lyso-DGTS-APOA1 (converted)
APOA1, sequence (P02647 19-267, species assumed): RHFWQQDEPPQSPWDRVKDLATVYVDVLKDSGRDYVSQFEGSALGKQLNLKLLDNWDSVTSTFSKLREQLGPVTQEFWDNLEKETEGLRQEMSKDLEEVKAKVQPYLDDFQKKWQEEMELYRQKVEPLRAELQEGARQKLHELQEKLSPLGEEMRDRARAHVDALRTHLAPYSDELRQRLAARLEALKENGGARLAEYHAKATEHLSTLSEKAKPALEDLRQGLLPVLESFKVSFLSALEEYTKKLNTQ
Method: The Trp-fluorescence-quenching method was further used to examine the interaction between lyso-DGTS and APOA1, the major protein component of HDL. Ka and thermodynamic parameters were also calculated (Table 6). […] The values obtained for n were not affected by temperature and were equal to=1 (Table 6).
The thermodynamic parameters: enthalpy (ΔH), entropy (ΔS), and free energy (ΔG) were calculated to characterize the APOA1-lyso-DGTS interaction type.

[5] = system: HDL isolated from Balb/c mice; assay: Pro-/anti-inflammatory properties of HDL isolated from HFD fed Balb/c mice, cell free assay; format: in vivo; conditions: HDL from HFD mice given lyso-DGTS 1.43 mg/ml, 3.5 μl a day, 28 days; fluorescence without HDL = 1.0; p<0.05
Method: Balb/c mice fed with normal rodent diet (the “non” group; n=11) or HFD received treatment administered via subcutaneously implanted osmotic mini-pumps: 1) vehicle group injected with DDW+2% Tween 80 (n=9); 2) lyso-DGTS group injected with lyso-DGTS (1.43 mg/ml in DDW+2% Tween 80; n=1). At the end of the protocol, serum was obtained, HDL was isolated, and its pro-inflammatory/anti-inflammatory properties were determined using cell free assay (CFA). Fluorescence in the absence of HDL was normalized to 1.0. Values>1.0, after addition of the tested HDL, indicated pro-inflammatory activity; and values<1.0 indicated anti-inflammatory activity. (*p<0.05).
In order to examine the effect of lyso-DGTS on HDL-anti-inflammatory effects in-vivo, 3.5 μl lyso-DGTS a day were administered for 28 days, via a subcutaneously implanted osmotic mini-pump, to HFD fed mice. As described in Example 12, the mice were divided into three groups: 1) mice fed with regular diet for 12 weeks (the “non” group; […]); 2) mice fed with HFD for 12 weeks and injected with lyso-DGTS (1.43 mg/ml in DDW+2% Tween) from week 9 (the lyso-DGTS group; n=1); and 3) mice fed with HFD for 12 weeks and injected with DDW+2% Tween (the vehicle group; n=9).

## CC/C=C\C/C=C\C/C=C\C/C=C\C/C=C\CCCC(=O)OCC(O)COCCC(C(=O)[O-])[N+](C)(C)C (stereo not shown) [lyso-DGTS, lyso-diacylglyceryltrimethylhornmoserine]
[1]; 25° C.
  Stern-Volmer quenching constant Ksv, rePON1: (1.18±0.13)×10^+4 M^−1
[1]; 37° C.
  Stern-Volmer quenching constant Ksv, rePON1: (0.93±0.03)×10^+4 M^−1
[1]; 298 K (25° C.)
  Binding constant Ka, lyso-DGTS-rePON1: 10520 M⁻¹
[1]; 310 K (37° C.)
  Binding constant Ka, lyso-DGTS-rePON1: 2377 M⁻¹
[2]
  ratio between HDLbound-PON1 vs. free-PON1: did not change
[3]; 1 μg/ml lyso-DGTS
  rePON1 lactonase activity: 4.05 units
  rePON1 lactonase activity preserved after incubation for 48 h: 9%
[3]; 5 μg/ml lyso-DGTS
  rePON1 lactonase activity: 5.73 units
  rePON1 lactonase activity preserved after incubation for 48 h: 33%
[3]; 10 μg/ml lyso-DGTS
  rePON1 lactonase activity: 8.10 units
  rePON1 lactonase activity preserved after incubation for 48 h: 49%
[3]; 50 μg/ml lyso-DGTS
  rePON1 lactonase activity: 11.61 units
  rePON1 lactonase activity preserved after incubation for 48 h: 69%
[3]; 100 μg/ml lyso-DGTS
  rePON1 lactonase activity: 12.7 units
  rePON1 lactonase activity preserved after incubation for 48 h: 66%
[3]; in buffer solution, abolished after 48 h without lyso-DGTS
  time for which rePON1 lactonase activity is stabilized and preserved: at least 48 h
[4]; 298 K
  number of binding sites (n), lyso-DGTS-APOA1: 1.01 ± 0.05
  ΔG, lyso-DGTS-APOA1 interaction: -1.09 kcal/mol
[4]; 298 K (25° C.)
  Kd: 422 µM
[4]; 310 K
  number of binding sites (n), lyso-DGTS-APOA1: 1.23 ± 0.05
  ΔG, lyso-DGTS-APOA1 interaction: -1.464 kcal/mol
[4]; 310 K (37° C.)
  Kd: 43.9 µM
[4]; from 298 and 310 K
  ΔH, lyso-DGTS-APOA1 interaction: 8.243 kcal/mol
  ΔS, lyso-DGTS-APOA1 interaction: 131.126 J/mol K
[5]
  HDL inflammatory value: < 1
